{"source": "patent US8557812B2", "about": "“Small molecule inhibitors of anti-apoptotic BCL-2 family members and the uses thereof” (The Regents of the University of Michigan, priority 2004, dated 2013)", "key": {"human Bcl-xL": {"target": "human Bcl-xL (Homo sapiens, UniProt Q07817)", "sequence (Q07817 1-209 limits assumed)": "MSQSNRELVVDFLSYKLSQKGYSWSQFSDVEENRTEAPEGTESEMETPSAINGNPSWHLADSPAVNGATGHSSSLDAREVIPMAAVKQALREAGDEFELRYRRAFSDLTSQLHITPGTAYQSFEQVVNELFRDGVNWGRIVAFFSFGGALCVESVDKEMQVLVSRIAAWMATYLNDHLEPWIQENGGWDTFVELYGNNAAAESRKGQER", "assay": "Fluorescence polarization in vitro Bcl-xL binding assay", "conditions": "displacement of Flu-Bak peptide", "from_the_text": "For determination of the binding affinity to Bcl-xL protein a human Bcl-xL recombinant His-tagged protein without the C-terminus hydrophobic tail and the Bak-16mer BH3 peptide labeled with 6-carboxyfluorescein succinimidyl ester (FAM) were used."}, "MDA-MB-231 (2LMP) cells": {"tested_on": "MDA-MB-231 (2LMP) cells", "assay": "Cell growth of MDA-MB-231 (2LMP) cells (WST)", "type": "cell-based", "conditions": "Homo sapiens, read-out: IC50 of cell growth inhibition"}, "[1]": {"assay": "Body weight of xenograft mice (Example 9)", "type": "in vivo", "conditions": "doses as in Example 9", "method": "To monitor toxicity, animal body weights were measured and plotted in FIG. 10."}, "PC-3 xenograft": {"tested_on": "PC-3 xenograft", "conditions": "for Complete tumor regression: tumors regressed/total", "description": "The tumor sizes were measured 2 times a week and calculated as: Tumor Volume=(A×B^2)/2 where A and B are the tumor length and width (in mm), respectively."}, "Bcl-2": {"target": "Bcl-2 (Homo sapiens, UniProt P10415)", "sequence (P10415 92-205 limits assumed)": "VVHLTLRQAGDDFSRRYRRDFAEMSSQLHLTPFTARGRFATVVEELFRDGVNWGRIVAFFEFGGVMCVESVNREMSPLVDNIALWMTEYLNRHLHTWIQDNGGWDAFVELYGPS", "assay": "Fluorescence polarization in vitro Bcl-2 binding assay", "method": "Bcl-2 used in this assay is a recombinant His-fused soluble protein. […] Inc., Research Triangle Park, N.C.). […] The unlabeled Bid peptide is used as the positive control. The Ki values were calculated using our developed equation for FP assay (Nikolovska-Coleska et al., Anal. Biochem., 2004, in press). The program for calculating a Ki value is available free of charge via the Internet at http://sw16.im.med.umich.edu/software/calc_ki/."}, "[2]": {"tested_on": "LnCap, PC-3, DU145c, 2LMP and MCF-10A cell lines", "assay": "Inhibition of cell growth in human cancer cell lines (MTT)", "type": "cell-based", "conditions": "120 h, each of LnCap, 5 days", "method": "The cells were then incubated at 37° C. with 5% CO2 for 5 days, followed by detection of cell viability with MTT. Untreated cells were used as 100% growth."}, "PC-3 cells [3]": {"tested_on": "PC-3 cells", "assay": "Apoptosis by Annexin V-FITC staining and flow cytometry", "type": "cell-based, human", "conditions": "2.5 μM, 45 hours"}, "PC-3 cells [4]": {"tested_on": "PC-3 cells", "assay": "Caspase-3 activation in PC-3 cells (flow cytometry)", "type": "cell-based, human", "conditions": "5 μM, 48 hours", "method": "(§1) The cells were analyzed by flow cytometry in the red channel and the results are shown as percent of cells having active caspase-3 (FIG. 5)."}, "[5]": {"tested_on": "PrEC (human normal prostate epithelial cells)", "assay": "Caspase-3 activation in PrEC cells (flow cytometry)", "type": "cell-based", "conditions": "48 hours", "method": "as §1"}, "MDA-231 cells": {"tested_on": "MDA-231 cells", "assay": "Cell survival with CDDP and TW-37 alone or in combination", "type": "cell-based, human", "conditions": "0.2 μM or 0.3 μM TW-37, 42 hours", "from_the_text": "CDDP is a DNA damaging agent and can effectively induce apoptosis in MDA-231 breasted cancer cells and is also a clinically used chemotherapeutic drug for cancer."}, "PC-3 tumor": {"tested_on": "PC-3 tumor", "assay": "PC-3 xenograft tumor growth, single agents (Example 8)", "type": "in vivo, NCr-nu male nude mice", "method": "TAXOTERE (TXT) and cisplatin (CDDP) were used as positive controls. For the PC-3 tumor model, 5×10^6 PC-3 cells were injected into the flanks of NCr-nu male nude mice on both sides. The quarter-MTD and half-MTD doses, i.e., 20 and 40 mg/kg, i.v. q.d.×5 for 3 weeks was tested."}, "in vivo": {"assay": "in vivo", "conditions": "female, Balb/c, mouse, iv"}}, "note": "Where two headings read alike, the source gives them in different places.", "data": [{"smiles": "O=C(c1ccc(Oc2ccccc2)cc1)c1cc(-c2cccc3ccccc23)c(O)c(O)c1O", "note": "[TM-165]", "values": [{"measurement": "IC50", "setting": "human Bcl-xL", "value": "> 1000", "unit": "nM"}, {"measurement": "IC50", "setting": "MDA-MB-231 (2LMP) cells", "value": "0.1 to 20", "unit": "µM"}]}, {"smiles": "O=C(c1ccc(Oc2ccccc2)cc1)c1cc(C(=O)c2ccc3ccccc3c2)c(O)c(O)c1O", "note": "[TM-169]", "values": [{"measurement": "IC50", "setting": "human Bcl-xL", "value": "> 1000", "unit": "nM"}, {"measurement": "IC50", "setting": "MDA-MB-231 (2LMP) cells", "value": "0.1 to 20", "unit": "µM"}]}, {"smiles": "CC(=O)O[C@@]12CO[C@@H]1C[C@H](O)[C@@]1(C)C(=O)[C@H](O)C3=C(C)[C@@H](OC(=O)[C@H](O)[C@@H](NC(=O)OC(C)(C)C)c4ccccc4)C[C@@](O)([C@@H](OC(=O)c4ccccc4)[C@H]21)C3(C)C", "note": "[TAXOTERE, (2R,3S)-N-carboxy-3-phenylisoserine, N-tert-butyl ester, 13-ester with 5b-20-epoxy-12a,4,7b,10b,13a-hexahydroxytax-11-en-9-one 4-acetate 2-benzoate, trihydrate]", "values": [{"measurement": "body weight during treatment", "setting": "[1]", "value": "reversible body weight loss"}, {"measurement": "T-C (days) tumor growth delay", "setting": "PC-3 xenograft; TXT 7.5 mg/kg", "value": 30, "unit": "days"}, {"measurement": "T/C (%) tumor growth inhibition", "setting": "PC-3 xenograft; TXT 7.5 mg/kg", "value": 55.1, "unit": "%"}, {"measurement": "activity under the NCI criteria (T/C<42%)", "setting": "PC-3 xenograft; TXT 7.5 mg/kg", "value": "is not"}, {"measurement": "Complete tumor regression", "setting": "PC-3 xenograft; TXT 7.5 mg/kg", "value": "0/10"}, {"measurement": "T-C (days) tumor growth delay", "setting": "PC-3 xenograft; TXT 11 mg/kg", "value": 32, "unit": "days"}, {"measurement": "T/C (%) tumor growth inhibition", "setting": "PC-3 xenograft; TXT 11 mg/kg", "value": 32.1, "unit": "%"}, {"measurement": "activity under the NCI criteria (T/C<42%)", "setting": "PC-3 xenograft; TXT 11 mg/kg", "value": "significantly active"}, {"measurement": "Complete tumor regression", "setting": "PC-3 xenograft; TXT 11 mg/kg", "value": "0/10"}]}, {"smiles": "CCCCCCCCCCC(=O)c1cc(C(C)C)c(O)c(O)c1O", "note": "[TM-106]", "values": [{"measurement": "IC50", "setting": "Bcl-2", "value": "> 1000", "unit": "nM"}, {"measurement": "IC50", "setting": "human Bcl-xL", "value": "> 1000", "unit": "nM"}, {"measurement": "IC50", "setting": "MDA-MB-231 (2LMP) cells", "value": "0.1 to 20", "unit": "µM"}]}, {"smiles": "CCCCCCCCCCCc1cc(CC2CCCCC2)c(O)c(O)c1O", "note": "[TM-129]", "values": [{"measurement": "IC50", "setting": "Bcl-2", "value": "> 1000", "unit": "nM"}, {"measurement": "IC50", "setting": "human Bcl-xL", "value": "> 1000", "unit": "nM"}, {"measurement": "IC50", "setting": "MDA-MB-231 (2LMP) cells", "value": "0.1 to 20", "unit": "µM"}]}, {"smiles": "Cc1ccc(Cc2ccc(Cc3cc(CCCc4ccccc4)c(O)c(O)c3O)cc2)cc1", "note": "[TM-133]", "values": [{"measurement": "IC50", "setting": "human Bcl-xL", "value": "> 1000", "unit": "nM"}, {"measurement": "IC50", "setting": "MDA-MB-231 (2LMP) cells", "value": "0.1 to 20", "unit": "µM"}]}, {"smiles": "Oc1c(Cc2ccccc2)cc(Cc2ccc(-c3ccccc3)cc2)c(O)c1O", "note": "[TM-142]", "values": [{"measurement": "IC50", "setting": "Bcl-2", "value": "> 1000", "unit": "nM"}, {"measurement": "IC50", "setting": "human Bcl-xL", "value": "> 1000", "unit": "nM"}, {"measurement": "IC50", "setting": "MDA-MB-231 (2LMP) cells", "value": "0.1 to 20", "unit": "µM"}]}, {"smiles": "CC(C)c1ccccc1Cc1cc(C(=O)Nc2ccc(S(=O)(=O)c3ccccc3C(C)(C)C)cc2)c(O)c(O)c1O", "note": "[TW-37, N-[(2-tert-Butyl-benzenesulfonyl)-phenyl]-2,3,4-trihydroxy-5-(2-isopropyl-benyl)-benzamide]", "values": [{"measurement": "IC50", "setting": "Bcl-2", "value": "≤ 1000", "unit": "nM"}, {"measurement": "IC50", "setting": "[2]", "value": "1000 to 5000", "unit": "nM"}, {"measurement": "apoptotic cells", "setting": "PC-3 cells [3]", "value": "about 35%"}, {"measurement": "cells having activated caspase-3", "setting": "PC-3 cells [4]", "value": "about 60%"}, {"measurement": "effect on caspase-3 activation in normal prostate epithelial cells", "setting": "[5]", "value": "no effect"}, {"measurement": "effect on CDDP induced cell death", "setting": "MDA-231 cells", "value": "enhanced the CDDP induced cell death"}, {"measurement": "potency on tumor growth compared with TAXOTERE", "setting": "PC-3 tumor; 40 mg/kg TW-37 vs TXT 7.5 mg/kg i.v. once a week", "value": "as potent as TAXOTERE"}, {"measurement": "inhibition of tumor growth in vivo", "setting": "PC-3 tumor; 20 and 40 mg/kg i.v. q.d.5×3 weeks", "value": "significantly inhibiting tumor growth in vivo"}, {"measurement": "body weight during treatment", "setting": "[1]", "value": "no obvious body weight loss"}, {"measurement": "T-C (days) tumor growth delay", "setting": "PC-3 xenograft; TW-37 40 mg/kg", "value": 37, "unit": "days"}, {"measurement": "activity under the NCI criteria (T/C<42%)", "setting": "PC-3 xenograft; TW-37 40 mg/kg", "value": "significantly active"}, {"measurement": "T/C (%) tumor growth inhibition", "setting": "PC-3 xenograft; TW-37 40 mg/kg i.v. q.d.5×3 weeks", "value": 34.5, "unit": "%"}, {"measurement": "tumor growth compared to control", "setting": "PC-3 xenograft; TW-37 40 mg/kg, p<0.001, two-way ANOVA, n=10", "value": "significantly inhibited tumor growth"}, {"measurement": "Complete tumor regression", "setting": "PC-3 xenograft; TW-37 40 mg/kg", "value": "0/10"}, {"measurement": "MTD at 3 weeks", "setting": "in vivo", "value": 80, "unit": "mg/kg"}]}, {"smiles": "O=C(c1ccc(Oc2ccccc2)cc1)c1cc(Cc2ccccc2)c(O)c(O)c1O", "note": "[TM-140]", "values": [{"measurement": "IC50", "setting": "human Bcl-xL", "value": "> 1000", "unit": "nM"}, {"measurement": "IC50", "setting": "MDA-MB-231 (2LMP) cells", "value": "0.1 to 20", "unit": "µM"}]}, {"smiles": "Cc1cc(C(=O)c2cc(Cc3ccccc3)c(O)c(O)c2O)c(C(C)C)cc1O", "note": "[TM-143]", "values": [{"measurement": "IC50", "setting": "MDA-MB-231 (2LMP) cells", "value": "> 20", "unit": "µM"}]}, {"smiles": "O=C(c1ccc(Oc2ccccc2)cc1)c1cc(C(=O)c2ccc(-c3ccccc3)cc2)c(O)c(O)c1O", "note": "[TM-171]", "values": [{"measurement": "IC50", "setting": "human Bcl-xL", "value": "≤ 1000", "unit": "nM"}, {"measurement": "IC50", "setting": "MDA-MB-231 (2LMP) cells", "value": "0.1 to 20", "unit": "µM"}]}, {"smiles": "O=C(c1ccc(Cc2cc(CCCc3ccccc3)c(O)c(O)c2O)cc1)c1cccc(O)c1O", "note": "[TM-135]", "values": [{"measurement": "IC50", "setting": "MDA-MB-231 (2LMP) cells", "value": "0.1 to 20", "unit": "µM"}]}, {"smiles": "CCCCCCCCCCC(=O)c1cc(Cc2ccccc2)c(O)c(O)c1O", "note": "[TM-122]", "values": [{"measurement": "IC50", "setting": "Bcl-2", "value": "≤ 1000", "unit": "nM"}, {"measurement": "IC50", "setting": "human Bcl-xL", "value": "> 1000", "unit": "nM"}, {"measurement": "IC50", "setting": "MDA-MB-231 (2LMP) cells", "value": "0.1 to 20", "unit": "µM"}]}, {"smiles": "O=C(c1cccc(Br)c1)c1cc(CCCc2ccccc2)c(O)c(O)c1O", "note": "[TM-137]", "values": [{"measurement": "IC50", "setting": "MDA-MB-231 (2LMP) cells", "value": "0.1 to 20", "unit": "µM"}]}, {"smiles": "CC(C)Cc1ccc(Cc2cc(CCCC3CCCCC3)c(O)c(O)c2O)cc1", "note": "[TM-134]", "values": [{"measurement": "IC50", "setting": "MDA-MB-231 (2LMP) cells", "value": "0.1 to 20", "unit": "µM"}]}, {"smiles": "Cc1cc(Cc2cc(Cc3ccccc3)c(O)c(O)c2O)c(C(C)C)cc1Oc1ccc([N+](=O)[O-])c(C(F)(F)F)c1", "note": "[TM-145]", "values": [{"measurement": "IC50", "setting": "MDA-MB-231 (2LMP) cells", "value": "0.1 to 20", "unit": "µM"}]}, {"smiles": "CC(C)c1cc(Cc2cc(Cc3ccccc3)c(O)c(O)c2O)ccc1O", "note": "[TM-152]", "values": [{"measurement": "IC50", "setting": "MDA-MB-231 (2LMP) cells", "value": "0.1 to 20", "unit": "µM"}]}]}
